Earlier results in patent US9072916B2, “Aqueous anti-perspiration formulation” (BEIERSDORF AG, priority 2004, dated 2015).

Conditions: in water, alcohol, ether and 2-propanol

solubility: readily soluble
Structure (SMILES): O=C(O)C(O)c1ccccc1 (stereo not shown) [Mandelic acid, mandelic acid]
